The source of these data is patent US5962466A, “Reduction of hair growth using inhibitors of matrix metalloproteinases” (priority 1998, dated 1999).

The target of assay [1] is T1, MMP-2 (72 kD collagenase) (Mesocricetus auratus, UniProt A0A1U7R1N2).
T1 construct: Flank organ hair follicles were removed from untreated hamsters and homogenized in a buffer; from tissue; host or cells: hamster flank organ hair follicle homogenate
The assay can be described thus: Zymographic assay of MMP-2 in flank organ hair follicle homogenates. The assay is classed as biochemical, hamster. Conditions: read-out: Percent Inhibition of Flank Organ MMP-2 Collagenase Activity. The procedure: (§1) The matrix metalloproteinases MMP-2 (72 kD collagenase) and MMP-9 (92 kD collagenase) were assayed in flank organ hair follicle homogenates using a zymographic assay. Zymography is an electrophoretic technique used to identify proteolytic activity in enzymes separated in polyacrylamide gels under nondenaturing conditions (Kleiner and Stetler-Stevenson, Analytical Biochemistry 218: 325-329, 1994). Flank organ hair follicles were removed from untreated hamsters and homogenized in a buffer containing 25 mM Tris, pH 7.5, and 50 mM sucrose. Samples of the homogenate were added to an equal volume of zymogram sample buffer containing 63 mM Tris-HCl, pH 6.8, 10% glycerol, 2% SDS, and 0.0025% bromophenol blue. (Note: all buffers and acrylamide gels were obtained from Novex, San Diego, Calif.). The samples were incubated for 10 minutes at room temperature and then loaded onto a precast 10% Tris-Glycine gel with 0.1% gelatin incorporated throughout the gel. The gel was electrophoresed at 125 constant volts for about 90 minutes. The gel was incubated for 30 minutes in renaturing buffer consisting of 2.5% triton X-100 followed by incubation in developing buffer which contained 10 mM Tris-base, 40 mM Tris-HCl, 200 mM NaCl, 5 mM CaCl2, and 0.02% Brij 35. The developing buffer was decanted after 30 minutes and replaced with fresh buffer for incubation overnight.
(§2) For inhibition experiments, the inhibitor was included in the renaturing and development buffer steps. The gel was stained with Coomassie blue 0.25% for 1 hour and then destained overnight. Transparent bands were visualized against a blue background. MMP-2 and MMP-9 standards were supplied by Oncologix (Gaithersburg, Md.). The relative degree of digestion, representing collagenase activity, was quantitated by scanning photographs of the gels using Adobe Photoshop (Adobe Systems Inc., Mountain View, Calif.) and IPLab Gel (Signal Analytics, Vienna, Va.) software. The images were digitally inverted so that the integrations of bands would be reported as positive values. This method of analysis was standardized with respect to protein concentration.

In assay [2] the target is T2, MMP-9 (92 kD collagenase) (Mesocricetus auratus, UniProt A0A1U7R3J7).
T2 construct: Flank organ hair follicles were removed from untreated hamsters and homogenized in a buffer; from tissue; host or cells: hamster flank organ hair follicle homogenate
T2 sequence (A0A1U7R3J7 20-718): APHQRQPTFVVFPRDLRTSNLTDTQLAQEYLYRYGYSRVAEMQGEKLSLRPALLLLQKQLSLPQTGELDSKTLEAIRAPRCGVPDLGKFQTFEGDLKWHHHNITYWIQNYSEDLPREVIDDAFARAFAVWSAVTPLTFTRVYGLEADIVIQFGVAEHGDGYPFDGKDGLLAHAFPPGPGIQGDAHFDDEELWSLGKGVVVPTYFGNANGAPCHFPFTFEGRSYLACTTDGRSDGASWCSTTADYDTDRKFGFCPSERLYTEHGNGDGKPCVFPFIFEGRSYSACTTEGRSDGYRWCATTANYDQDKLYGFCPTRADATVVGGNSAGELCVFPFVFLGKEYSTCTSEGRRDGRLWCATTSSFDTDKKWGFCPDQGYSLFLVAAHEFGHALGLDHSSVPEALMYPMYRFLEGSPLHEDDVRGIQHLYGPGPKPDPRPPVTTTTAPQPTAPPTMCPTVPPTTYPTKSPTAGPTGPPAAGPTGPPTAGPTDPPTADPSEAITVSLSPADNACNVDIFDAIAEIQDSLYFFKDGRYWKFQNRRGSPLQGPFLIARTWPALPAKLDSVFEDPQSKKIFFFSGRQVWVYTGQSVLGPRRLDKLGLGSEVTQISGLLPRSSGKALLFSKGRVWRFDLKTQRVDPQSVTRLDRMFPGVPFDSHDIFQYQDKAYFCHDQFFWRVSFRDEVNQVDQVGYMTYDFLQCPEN
The experiment in a line: Zymographic assay of MMP-9 in flank organ hair follicle homogenates. The assay is classed as biochemical, hamster. Conditions: read-out: Percent Inhibition of Flank Organ MMP-9 Collagenase Activity. The procedure: as §1, §2

Another assay concerns flank organ hair growth. The experiment in a line: Golden Syrian hamster assay (flank organ hair mass). In kind it is in vivo. Conditions: topical, 13 applications. The text has this:
Male intact Golden Syrian hamsters are considered acceptable models for human beard hair growth in that they display oval shaped flank organs, one on each side, each about 8 mm. in major diameter, which grow thick black and coarse hair similar to human beard hair. These organs produce hair in response to androgens in the hamster. To evaluate the effectiveness of a composition including an inhibitor of an MMP, the flank organs of each of a group of hamsters are depilated by applying a thioglycolate based chemical depilatory (Surgex). To one organ of each animal 10 μl. of vehicle alone once a day is applied, while to the other organ of each animal an equal amount of vehicle containing an inhibitor of a matrix metalloproteinase is applied. After thirteen applications (one application per day for five days a week), the flank organs are shaved and the amount of recovered hair (hair mass) from each is weighed. Percent-reduction of hair growth is calculated by subtracting the hair mass (mg) value of the test compound treated side from the hair mass value of the vehicle treated side; the delta value obtained is then divided by the hair mass value of the vehicle treated side, and the resultant number is multiplied by 100.
The above-described assay will be referred to herein as the "Golden Syrian hamster" assay.

Where two headings read alike, the source gives them in different places.

T1 sequence (A0A1U7R1N2 30-662): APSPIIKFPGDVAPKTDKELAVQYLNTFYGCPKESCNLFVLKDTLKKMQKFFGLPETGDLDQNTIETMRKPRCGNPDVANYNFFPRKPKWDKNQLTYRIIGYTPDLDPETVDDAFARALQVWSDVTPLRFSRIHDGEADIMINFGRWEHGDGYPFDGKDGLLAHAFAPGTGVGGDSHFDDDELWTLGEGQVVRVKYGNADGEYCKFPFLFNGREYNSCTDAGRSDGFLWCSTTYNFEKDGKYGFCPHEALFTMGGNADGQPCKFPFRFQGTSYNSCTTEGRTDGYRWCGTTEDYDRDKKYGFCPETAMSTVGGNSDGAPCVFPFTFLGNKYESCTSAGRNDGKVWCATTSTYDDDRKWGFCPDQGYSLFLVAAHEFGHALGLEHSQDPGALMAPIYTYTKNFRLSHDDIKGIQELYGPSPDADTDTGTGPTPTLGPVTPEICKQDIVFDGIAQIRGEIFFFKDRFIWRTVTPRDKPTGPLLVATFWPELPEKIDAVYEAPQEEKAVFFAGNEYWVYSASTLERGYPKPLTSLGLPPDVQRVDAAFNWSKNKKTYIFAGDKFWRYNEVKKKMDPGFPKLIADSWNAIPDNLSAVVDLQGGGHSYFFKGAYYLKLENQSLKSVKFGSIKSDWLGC

For `c1cnc2c(c1)ccc1cccnc12` [1,10-Phenanthroline, 1,10-phenanthroline], the inhibition at 100 µM in assay [1] and in assay [2] (concentration 0.1 mM) was 100% throughout. Moreover, the inhibition at 500 µM in assay [1] and in assay [2] (concentration 0.5 mM) was 100% each time. Further, the “% Reduction of hair mass” value in the assay with flank organ hair growth (dose 5%, Vehicle A, pH 7.0) turned out to be 45 ± 9%. The “Hair Mass (mg) Treated” value in the assay with flank organ hair growth (dose 5%, Vehicle A, pH 7.0) is 1.40 ± .24 mg.

With `C[C@H]1c2cccc(O)c2C(O)=C2C(=O)[C@]3(O)C(O)=C(C(N)=O)C(=O)[C@@H](N(C)C)[C@@H]3[C@@H](O)[C@@H]21` [Doxycycline, α-6-deoxy-5-hydroxytetracycline], the inhibition (usually the drop in the measured response relative to a control, in per cent) at 100 µM in assay [1] (concentration 0.1 mM) came out at 89%; in assay [2] (concentration 0.1 mM) it was 28%. Further, the inhibition at 500 µM in assay [1] (concentration 0.5 mM) and in assay [2] (concentration 0.5 mM) was 100% each time. Besides, the “% Reduction of hair mass” value with flank organ hair growth (dose 10%, Vehicle A, pH 5.5) amounted to 27 ± 9%. For the same compound, the “Hair Mass (mg) Treated” value in the assay on flank organ hair growth (dose 10%, Vehicle A, pH 5.5) is on record as 1.73 ± .22 mg.

On to `C=C1c2cccc(O)c2C(=O)C2=C(O)[C@]3(O)C(=O)C(C(N)=O)=C(O)[C@@H](N(C)C)[C@@H]3[C@@H](O)[C@H]12` [Methacycline, 6-methylene oxytetracycline], for which, in assay [1] (concentration 1 mM), the inhibition at 1000 µM was 100%. In assay [2] (concentration 1 mM), the inhibition at 1000 µM is 100%. Moreover, in the assay on flank organ hair growth (dose 10%, Vehicle A, pH 4.0), the “% Reduction of hair mass” value amounted to 57 ± 9% and the “Hair Mass (mg) Treated” value is given as 0.68 ± .11 mg.

`CN(C)c1ccc(O)c2c1C[C@H]1C[C@H]3[C@H](N(C)C)C(O)=C(C(N)=O)C(=O)[C@@]3(O)C(O)=C1C2=O` [Minocycline, 7-dimethylamino-6-dimethyl-6-deoxytetracycline]: the inhibition at 1000 µM in assay [1] (concentration 1 mM) turned out to be 100%. Moreover, the inhibition at 1000 µM in assay [2] (concentration 1 mM) worked out at 100%. For the same compound, in the assay with flank organ hair growth (dose 10%, Vehicle A, pH 4.0), the “% Reduction of hair mass” value was 63 ± 6% and the “Hair Mass (mg) Treated” value is 0.82 ± .11 mg.

Consider `O=Cc1ccc(O)c(O)c1` [Protocatechuic aldehyde, 3,4-dihydroxybenzaldehyde], for which, in the assay with flank organ hair growth (dose 10%, Vehicle A, pH 3.5), the “% Reduction of hair mass” value was 32 ± 9% and the “Hair Mass (mg) Treated” value is on record as 0.92 ± .13 mg.

Turning to `CN(C)C1C(O)=C(C(N)=O)C(=O)C2(O)C(O)=C3C(=O)c4c(O)cccc4C(C)(O)C3CC12` (stereo not drawn) [Tetracycline, 4-(dimethylamino)-1,4,4a,5,5a,6,11,12a-octahydro-3,6,10,12,12a-pentahydroxy-6-methyl-1,11-dioxo-2-naphthacenecarboxamide], in assay [1], the inhibition at 100 µM stood at 31%, the inhibition at 500 µM was found to be 64% and the inhibition at 1000 µM was 100%. Besides, in assay [2], the inhibition at 100 µM came to 49%, the inhibition at 500 µM is 70% and the inhibition at 1000 µM came to 100%. In the assay with flank organ hair growth (dose 10%, Vehicle B, pH 4.5), the “% Reduction of hair mass” value amounted to 56 ± 9% and the “Hair Mass (mg) Treated” value is 0.67 ± .10 mg.
